Experiments:
[1] = clopidogrel in direct contact with compound of Formula 1; 40° C./RH 75%, four weeks
Procedure: A test on blending compatibility with additives was performed in a state, in which clopidogrel was alone and mixed with a compound of Formula 1.
A ratio of additives to main component was adjusted, after which a change of contents and related substances was evaluated under accelerated test conditions (40° C./RH 75%) for four weeks, such that the results thereof are shown in FIGS. 3 to 5.

[2] = Evaluation test on pharmacokinetic drug interactions through nonclinical models; format: in vivo; settings: beagle dogs; combined administration with clopidogrel
Procedure: To determine the effect of esomeprazole (PPI drug) and a compound of Formula 1 on a medicinal effect of clopidogrel, a test on pharmacokinetic drug interactions was performed in such a way that 20 mg of clopidogrel and 20 mg of esomeprazole or 50 mg of the compound of Formula 1 were administered in combination into beagle dogs once or repeatedly (for seven days).
Particularly, clopidogrel was repeatedly administered into ten beagle dogs for seven days, after which esomeprazole and the compound of Formula 1 were administered in combination into those beagle dogs at steady-state for seven days, such that blood was collected therefrom on 5th, 8th and 14th days, to perform a pharmacokinetic analysis before and after the administration.
FIGS. 1 and 2 are graphs of showing a concentration of clopidogrel active metabolites in blood, which was measured after administering esomeprazole and the compound of Formula 1 in combination, respectively.

stability of drug (contents and related substances) [1] | risk of drug interactions with clopidogrel [2] | SMILES
stability of a drug deteriorates |  | COC(=O)[C@H](c1ccccc1Cl)N1CCc2sccc2C1 [clopidogrel, methyl (+)-(S)-α-(2-chlorophenyl)-6,7-dihydrothieno[3,2-c]pyridine-5(4H)-acetate]
 | low risk of drug interactions | Cc1nc2c(O[C@H]3CCOc4cc(F)cc(F)c43)cc(C(=O)N(C)C)cc2[nH]1 [compound of Formula 1, (S)-4-[(5,7-difluoro-3,4-dihydro-2H-chromene-4-yl)oxy]-N,N,2-trimethyl-1H-benzimidazole-6-carboxamide]

Source: patent US12128030B2, “Pharmaceutical composition comprising antiplatelet agent and gastric acid secretion inhibitor” (HK INNO.N CORPORATION, priority 2018, dated 2024)
